Legend:
Format in all cases: in vivo, mouse
[1] = tested on: obese mice fed with high-fat diet (DIO); assay: Metabolic cage, obese mice fed with high-fat diet (DIO); details: 20 mg/kg
Method: (§1) Before starting the metabolic cage experiment, the mice were fed in a single cage for 1 week. After a one-week single cage adaptation period, three days before the start of the small molecule compound injection, the mice were injected with 25 μL of DMSO within 2 hours before turning off the lights every afternoon, allowing them to adapt to the injection for 3 days. After 3 days of injection, the acclimated mice were put into the metabolic cage. Starting from the same day, 25 μL of DMSO and HLY72 (20 mg/kg) were injected within 2 hours before turning off the lights for 3 consecutive days.
Next, the effect of HLY72 on the metabolism of mice is studied. We use two methods: (1) the relevant metabolic indexes of the mice are directly measured using the metabolic cage, and (2) the expression of the relevant key metabolic genes is detected. three metabolic parameters are obtained through the metabolic cage experiment: (1) Energy expenditure (EE), energy output is an important aspect of energy balance, under conditions such as restricted diet and fasting, mice will reduce basic metabolism, reduce energy expenditure; (2) respiratory exchange ratio (RER), based on the ratio calculated by CO2 produced and the use of 02, RER of 1 means that carbohydrates is mainly used as energy, RER of 0.7 means that fat is mainly used as fuel; (3) physical activity (Activity).

[2] = tested on: mice; assay: Water consumption of mice; details: 20 mg/kg injection, three consecutive days
Method: Since OB/OB mice are a diabetic mouse model, they have the characteristics of polyphagia, polydipsia, and polyuria. […] Again whether HLY72 had the effect of reducing drinking water in mice was tested. […] For the mice of high-fat diet (HFD), the three-day water consumption is only 26.38%±2.06% of the control group (FIG. 9). Therefore, HLY72, like NUCB2/Nesfatin-1, has the effect of reducing water consumption in mice.

[3] = tested on: mice fed with high-fat diet; assay: Paired feeding experiment in metabolic cage; details: 20 mg/kg
Method: Mice fed with high-fat diet (8 mice per group) are placed in a metabolic cage for 3 days and injected with 20 mg/kg of HLY72 or DMSO once a day. Half of the mice in the DMSO group are paired with the HLY72 group. The average daily food intake (A), energy dissipation (B), respiratory exchange rate (C), physical activity (D) (E) of the three groups of mice after the three-day metabolic cage experiment is completed, the weight of the three groups of mice.
as §1
Next, the HLY72 injection group and their paired feeding group are compared. The DMSO-injected mice were divided into two groups. The first group was free to get enough food, while the other group was provided the same amount of food as the HLY72 group daily. […] Compared with the DMSO group, the energy expenditure of the HLY72 group and its paired feeding group are decreased day and night. There is no difference in energy expenditure between the HLY72 group and its paired feeding group during the day and night (FIG. 14b).

SMILES: C=Cc1cccc2c1N(C)Cc1cc3c(cc1-2)OCO3 [HLY72]
- physical activity ([1]; at night): significantly reduced
- energy expenditure ([1]; at night and during the day): significantly reduced
- respiratory exchange rate compared with the DMSO group ([1]; at night and during the day): significantly reduced
- physical activity ([1]; during the day): no change
- three-day water consumption of treated mice, percent of control group ([2]; high-fat diet (HFD) mice): 26.38%±2.06%
- three-day water consumption of treated mice, percent of control group ([2]; normal chow diet (NCD) mice): 39.68%±2.29%
- body weight, difference to paired feeding group [3]: no significant difference
- physical activity compared with the DMSO group and the paired feeding group [3]: significantly reduced
- body weight ([3]; after three-day metabolic cage): decreased significantly
- energy expenditure compared with the DMSO group ([3]; day and night): decreased
- energy expenditure, difference to paired feeding group ([3]; day and night): no difference
- respiratory exchange rates compared with the paired feeding group and the DMSO group ([3]; night and day): significantly reduced
